Assays:
Experiment in all cases: drug sensitivity score (DSS) from 5-point dose-response viability curve (DSS (area-under-curve based score)); higher = more sensitive (stronger growth inhibition or killing); extreme values may be limits of the assay
Settings in all cases: exposure time: 72 h; concentration range: 5 concentrations over 10,000-fold range
HOSE1C = tested on: HOSE1C
Method in brief: (§1)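 Each cell line and drug received a drug sensitivity score from Breeze software, where higher means more sensitive. Zero stands for no response. Scores came from CellTiter-Glo viability readings of ovarian cancer and normal ovarian cells, 1,500 per well in 384-well plates, after 3 days at 37°C, 5% CO2 with drugs at five concentrations over a 10,000-fold range.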

OVCAR8 = tested on: OVCAR8
Method in brief: as §1

HOSE2C = tested on: HOSE2C
Method in brief: as §1

Ovsaho = tested on: Ovsaho
Method in brief: as §1

CAOV3 = tested on: CAOV3
Method in brief: as §1

COV362 = tested on: COV362
Method in brief: as §1

COV318 = tested on: COV318
Method in brief: as §1

OV90 = tested on: OV90
Method in brief: as §1

Kuramochi = tested on: Kuramochi
Method in brief: as §1

OVCAR5 = tested on: OVCAR5
Method in brief: as §1

OVCAR4 = tested on: OVCAR4
Method in brief: as §1

JHOS2 = tested on: JHOS2
Method in brief: as §1

Row | SMILES | drug sensitivity score (HOSE1C) | drug sensitivity score (OVCAR8) | drug sensitivity score (HOSE2C) | drug sensitivity score (Ovsaho) | drug sensitivity score (CAOV3) | drug sensitivity score (COV362) | drug sensitivity score (COV318) | drug sensitivity score (OV90) | drug sensitivity score (Kuramochi) | drug sensitivity score (OVCAR5) | drug sensitivity score (OVCAR4) | drug sensitivity score (JHOS2)
1 | CC(C)C[C@H](NC(=O)[C@@H](COC(C)(C)C)NC(=O)[C@H](Cc1ccc(O)cc1)NC(=O)[C@H](CO)NC(=O)[C@H](Cc1c[nH]c2ccccc12)NC(=O)[C@H](Cc1cnc[nH]1)NC(=O)[C@@H]1CCC(=O)N1)C(=O)N[C@@H](CCCNC(=N)N)C(=O)N1CCC[C@H]1C(=O)NNC(N)=O [Goserelin] | 0 | 0 | 0 | 4.7 | 0 | 0 | 0 | 0 | 0 | 0 | 0 | 0
2 | Cc1cc(Nc2cc(N3CCN(C)CC3)nc(Sc3ccc(NC(=O)C4CC4)cc3)n2)n[nH]1 [Tozasertib] | 5.2 | 6.5 | 6.8 | 2.3 | 25.2 | 1.6 | 1.3 | 6.4 | 3.6 | 6.1 | 5.8 | 2.1
3 | CC(=O)O[C@]1(C(C)=O)CC[C@H]2[C@@H]3C=C(C)C4=CC(=O)CC[C@]4(C)[C@H]3CC[C@@]21C [Megestrol acetate] | 0 | 0.4 | 0 | 0 | 0 | 0 | 0 | 0 | 0 | 0 | 0 | 0
4 | COc1cc(N2CCN(C)CC2)ccc1Nc1nccc(-c2cn(C)c3cnccc23)n1 [AZ191] | 1 | 2.2 | 1.9 | 1.6 | 0 | 2.2 | 4.1 | 5.9 | 1.4 | 2 | 0.6 | 4.4
5 | COc1cccc(-c2ccc(NC(=O)C3=C(C(=O)O)CCC3)c(F)c2)c1 [Vidofludimus] | 6 | 2.1 | 3.9 | 0.2 | 0 | 0 | 0 | 0 | 0 | 0 | 0 | 0.1
6 | CC(C)[C@H](C(=O)Nc1ccc(C(=O)NO)cc1)c1ccccc1 [AR-42] | 21.1 | 16.8 | 16.9 | 9 | 9.9 | 2.9 | 7.5 | 12.8 | 9.5 | 16.5 | 7.2 | 7.8
7 | CCc1cnn2c(NCc3ccc[n+]([O-])c3)cc(N3CCCC[C@H]3CCO)nc12 [Dinaciclib] | 28 | 20.7 | 15.4 | 17.9 | 17.9 | 13.6 | 15.9 | 21.2 | 13.1 | 17.9 | 15.7 | 19
8 | Nc1nc(Cl)nc2c1ncn2[C@H]1C[C@H](O)[C@@H](CO)O1 [Cladribine] | 0 | 9.8 | 0 | 0.1 | 4.2 | 0.1 | 0 | 1.6 | 0 | 2.1 | 0 | 3.1
9 | O=C(Nc1nc2cccc(-c3ccc(CN4CCS(=O)(=O)CC4)cc3)n2n1)C1CC1 [Filgotinib] | 0.1 | 2.5 | 0 | 2.5 | 2.3 | 0.2 | 3.4 | 3.2 | 5.1 | 1.8 | 2.6 | 1.1
10 | CC(C)C[C@H](NC(=O)[C@H](Cc1ccccc1)NC(=O)c1cnccn1)B(O)O [Bortezomib] | 27.4 | 23 | 24.4 | 17.8 | 26.4 | 24.7 | 28.3 | 22.8 | 9.3 | 23.9 | 24.6 | 24.5
11 | CN[C@@H](C)C(=O)N[C@H](C(=O)N1CCC[C@H]1c1nc(C(=O)c2ccc(F)cc2)cs1)C1CCCCC1 [NVP-LCL161] | 0.7 | 8.5 | 0 | 8.6 | 14.4 | 1.9 | 0.8 | 5 | 1.9 | 4.1 | 16.4 | 9.1
12 | Cc1c(F)cc(C(=O)NC2CC2)cc1-c1ccc(C(=O)NCC(C)(C)C)cn1 [Losmapimod] | 0 | 0.2 | 0 | 0.7 | 0 | 0 | 0.4 | 1.5 | 2 | 0.9 | 0 | 0
13 | C[C@H]1CNCCCN1S(=O)(=O)c1cccc2cncc(F)c12 [Ripasudil] | 2 | 0 | 0.6 | 0 | 0 | 0 | 0 | 0 | 0 | 0 | 0 | 0
14 | CNC(=O)c1ccccc1Sc1ccc2c(/C=C/c3ccccn3)n[nH]c2c1 [Axitinib] | 1.9 | 2 | 6.2 | 0.8 | 5 | 0 | 0 | 0.1 | 0.4 | 0.8 | 0.2 | 0
15 | COc1cc(OC)cc(N(CCNC(C)C)c2ccc3ncc(-c4cnn(C)c4)nc3c2)c1 [Erdafitinib] | 3.2 | 0 | 11.2 | 0 | 0 | 0 | 3.5 | 0 | 0 | 0 | 2.6 | 0
16 | CC(C)NC(=O)COc1cccc(-c2nc(Nc3ccc4[nH]ncc4c3)c3ccccc3n2)c1 [KD025] | 0 | 8.2 | 0 | 1.9 | 0.4 | 0.5 | 0 | 8.7 | 3.8 | 2 | 3.6 | 1.2
17 | CCOC(=O)CCNc1cc(N2CCc3ccccc3CC2)nc(-c2ccccn2)n1 [GSK-J4] | 2.5 | 1.5 | 0.8 | 1.9 | 1.6 | 0 | 6.9 | 4.6 | 9 | 0.6 | 2.9 | 0
18 | COc1cc(Nc2ncc(F)c(Nc3ccc4c(n3)N(COP(=O)(O)O)C(=O)C(C)(C)O4)n2)cc(OC)c1OC [Fostamatinib] | 2 | 0.3 | 8.4 | 2.4 | 0 | 0.8 | 1.5 | 2.9 | 2.4 | 3.7 | 2.9 | 0.8
19 | CN(C)C1CCN(C(=O)c2ccc(NC(=O)Nc3ccc(-c4nc(N5CCOCC5)nc(N5CCOCC5)n4)cc3)cc2)CC1 [Gedatolisib] | 17.9 | 7.5 | 13.1 | 13.4 | 10 | 4.8 | 3.2 | 15.4 | 11.4 | 12.3 | 14.8 | 7.4
20 | O=C(O)c1ccc2c(c1)nc(Nc1cccc(Cl)c1)c1ccncc12 [Silmitasertib] | 7.7 | 4.7 | 4.5 | 4.7 | 8.6 | 0.9 | 3.2 | 5.8 | 5.5 | 5.3 | 3.3 | 4.4
21 | CC(C)n1cnc2c(NCCc3ccc(O)cc3)nc(-c3csc4ccccc34)nc21 [StemRegenin 1] | 3.8 | 1.6 | 2.2 | 1.8 | 0 | 2 | 1.1 | 1.2 | 1.3 | 4.2 | 1.1 | 1
22 | CONC(=O)c1ccccc1Nc1cc(Nc2cc(C)nn2C(C)C)ncc1Cl | 0 | 0 | 0 | 3.1 | 0 | 0.2 | 0 | 0 | 1.4 | 0.3 | 0.1 | 0.1
23 | OC[C@H]1O[C@@H](n2cnc3c2N=CNC[C@H]3O)C[C@@H]1O [Pentostatin] | 0 | 0 | 1.5 | 0 | 0 | 0 | 0 | 0 | 0 | 0 | 0 | 0
24 | Cc1c(N)nc([C@H](CC(N)=O)NC[C@H](N)C(N)=O)nc1C(=O)N[C@H](C(=O)N[C@H](C)[C@@H](O)[C@H](C)C(=O)N[C@H](C(=O)NCCc1nc(-c2nc(C(=O)NCCC[S+](C)C)cs2)cs1)[C@@H](C)O)[C@@H](OC1OC(CO)C(O)C(O)C1OC1OC(CO)C(O)C(OC(N)=O)C1O)c1cnc[nH]1 (stereo not given in full) [Bleomycin] | 2.8 | 5.6 | 4.5 | 1 | 2.2 | 0 | 0 | 2.6 | 0 | 2.3 | 0.6 | 0.8
25 | NC(=O)c1cccc2cn(-c3ccc([C@@H]4CCCNC4)cc3)nc12 [Niraparib] | 3.9 | 4.1 | 1.9 | 2.1 | 3.4 | 0 | 1.1 | 1.7 | 1 | 2.6 | 0 | 1.5
26 | CCCCNc1ncc(C(=O)NCc2ccc(-n3ccnc3)cc2)c(NC2CCC(O)CC2)n1 (stereo not given) [UNC2881] | 0 | 0 | 0.5 | 0.8 | 0.2 | 0 | 0 | 1.2 | 0 | 0.6 | 0.1 | 0
27 | C[C@H](Nc1ncnc2[nH]cnc12)c1cc2ccc(F)cc2nc1-c1ccccn1 [AMG319] | 0 | 0 | 0 | 1.2 | 0 | 0 | 0.1 | 0 | 1.1 | 0 | 0.7 | 0
28 | CN1CCN(C(=O)c2ccc3cc(CCNc4ncnc5ccc(C#N)cc45)ccc3c2)CC1 [Senexin B] | 0 | 0.2 | 0 | 1.3 | 0.2 | 0 | 0 | 0.5 | 2.6 | 1.7 | 1.1 | 0
29 | Cc1cn(-c2cc(NC(=O)c3ccc(C)c(Nc4nccc(-c5cccnc5)n4)c3)cc(C(F)(F)F)c2)cn1 [Nilotinib] | 0 | 3.4 | 0 | 0 | 0 | 1.2 | 0.1 | 0 | 0 | 2 | 0.9 | 0
30 | CN(CC(=O)N(Cc1ccc(C2CCCCC2)cc1)c1ccc(C(=O)O)cc1)S(=O)(=O)c1c(F)c(F)c(F)c(F)c1F [SH-4-54] | 7.5 | 5.8 | 7.5 | 5.7 | 8.1 | 4.5 | 5.1 | 7.4 | 6.6 | 5.2 | 6.2 | 5.2

— the supplement of paper PMC11616607
